These are literature values, as cited in patent US6472398B1, “Spiropiperidine derivatives as melanocortin receptor agonists” (Merck & Co., Inc., priority 2000, dated 2002).

The subject of data set [1] is patients with erectile dysfunction. As to conditions: for duration of effect / onset of action: after an oral dose; for share of patients with adequate response: oral, men with erectile dysfunction.
Data set [2] has as its system rodents. As to conditions: ICV; NPY, ob/ob, agouti, fasted feeding models.
For data set [3], the system named is males with psychogenic erectile dysfunction.

On to `Cc1ccc(N(CC2=NCCN2)c2cccc(O)c2)cc1` [phentolamine], for which, in data set [1], the duration of effect is 2 h, the onset of action is 5 to 30 min and the “share of patients with adequate response” value is reported as 35-40%.

For `CCCc1nn(C)c2c(=O)[nH]c(-c3cc(S(=O)(=O)N4CCN(C)CC4)ccc3OCC)nc12` [sildenafil], in data set [1], the duration of effect result is recorded as “about 4 hours”, the onset of action is 30 to 60 min and the “share of patients with adequate response” value is “about 70%”.

Regarding “Ac-Nle-c[Asp-His-DPhe-Arg-Trp-Lys]-NH2 [MT-II]”, in data set [2], the “effect on food intake” value was “reduces food intake”. Moreover, in data set [3] (in vivo), the duration of action entry is recorded as “approximately 2.5 hours” and the “time to onset of erection” value is 10 to 20 min. Also, in data set [3] (in vivo, po), the “absorption into the systemic circulation” value is given as “not absorbed into the systemic circulation”. Besides, the response rate in data set [3] (injected intramuscularly or subcutaneously) is 75%.

With SHU-9119, the “effect on food intake” value in data set [2] is “reverses this effect and can induce hyperphagia”.
